Measured values as given in patent publication US20120245154A1, “SUBSTITUTED AMINOTHIAZINE DERIVATIVE” (SHIONOGI & CO., LTD., priority 2009, published 2012).
pIC50: −log10 of the molar value.

Columns and labels:
[1] = Metabolism stability test; format: in vitro ADME; conditions: human liver microsomes 0.5 mg protein/mL, 1 mmol/L NADPH, 37° C., 30 minutes
Method: Using a commercially available pooled human hepatic microsomes, a test compound was reacted for a constant time, a remaining rate was calculated by comparing a reacted sample and an unreacted sample, thereby, a degree of metabolism in liver was assessed.
A reaction was performed (oxidative reaction) at 37° C. for 0 minute or 30 minutes in the presence of 1 mmol/L NADPH in 0.2 mL of a buffer (50 mmol/L Tris-HCl pH 7.4, 150 mmol/L potassium chloride, 10 mmol/L magnesium chloride) containing 0.5 mg protein/mL of human liver microsomes. After the reaction, 50 μL of the reaction solution was added to 100 μL of a methanol/acetonitrile=1/1 (v/v), mixed and centrifuged at 3000 rpm for 15 minutes. The test compound in the supernatant was quantified by LC/MS/MS, and a remaining amount of the test compound after the reaction was calculated, letting a compound amount at 0 minute reaction time to be 100%.

CYP3A4 [2] = biological target: T1, CYP3A4 (Homo sapiens, UniProt P08684); assay: CYP3A4 fluorescent MBI test; format: in vitro ADME; design: host or cells: Escherichia coli; conditions: CYP3A4 expressed in Escherichia coli, substrate 7-BFC
Method: The CYP3A4 fluorescent MBI test is a test of investigating enhancement of CYP3A4 inhibition of a compound by a metabolism reaction, and the test was performed using, as CYP3A4 enzyme expressed in Escherichia coli and employing, as an index, a reaction in which 7-benzyloxytrifluoromethylchmarin (7-BFC) is debenzylated by the CYP3A4 enzyme to produce a metabolite, 7-hydroxytrifluoromethylchmarin (HFC) emitting fluorescent light.
The reaction conditions were as follows: substrate, 5.6 μmol/L 7-BFC; pre-reaction time, 0 or 30 minutes; reaction time, 15 minutes; reaction temperature, 25° C. […]
An enzyme in a K-Pi buffer (pH 7.4) and a test drug solution as a pre-reaction solution were added to a 96-well plate at the composition of the pre-reaction, a part of it was transferred to another 96-well plate so that it was 1/10 diluted by a substrate in a K-Pi buffer, NADPH as a co-factor was added to initiate a reaction as an index (without preincubation) and, after a predetermined time of a reaction, acetonitrile/0.5 mol/L Tris (trishydroxyaminomethane)=4/1 was added to stop the reaction. […] For the plate on which each index reaction had been performed, a fluorescent value of 7-HFC which is a metabolite was measured with a fluorescent plate reader. […]

Solubility test = format: physicochemical; conditions: JP-I medium, pH 1.2, simulated gastric fluid, kinetic from dmso stock, from turbidity after 4 hours, read-out: solubility assessed by 3 stages
Method: A 2-fold dilution series (12 points) of a 10 mM solution of a test compound in DMSO was added to a medium (JP-I, JP-II) (2%), and solubility was assessed by 3 stages (High; >40 μM, Medium; 3-40 μM, Low; <3 μM) from a turbidity after 4 hours (crystallization information).
The preparation method of solution was as follows: A 10 mM solution of the compound was prepared with DMSO, and 6 μL of the compound solution was added to 594 μL of an artificial intestinal juice (water and 118 mL of 0.2 mol/L NaOH reagent were added to 250 mL of 0.2 mol/L potassium dihydrogen phosphate reagent to reach 1000 mL) with a pH of 6.8. The mixture was left standing for 16 hours at 25° C., and the mixture was vacuum-filtered. The filtrate was two-fold diluted with methanol/water=1/1.

Recombinant human BACE1 = biological target: T2, Recombinant human BACE1 (Homo sapiens, UniProt P56817); assay: Assay of BACE1 inhibiting activity; format: biochemical; conditions: Recombinant human BACE1 7.4 nM, substrate peptide 18 nM, pH 5.0, 30° C., 3 hours; read-out: IC50 (50% inhibitory concentration against the enzymatic activity)
T2 construct: purchased R&D Systems
Method: 48.5 μL of substrate peptide solution (Biotin-XSEVNLDAEFRHDSGC-Eu: X=ε-amino-n-capronic acid, Eu=Europium cryptate) was added to each well of 96-hole half-area plate (a black plate: Corning Incorporated), and after addition of 0.5 μl of the test compound (dissolved in […]) and 1 μl of Recombinant human BACE1(R&D Systems), the reaction mixture was incubated at 30° C. for 3 hours. The substrate peptide was synthesized by reacting Cryptate TBPCOOH mono SMP (CIS bio international) with Biotin-XSEVNLDAEFRHDSGC (Peptide Institute, Inc.). […]
After the incubation for reaction, 50 μl of 8.0 μg/ml Streptavidin-XL665(CIS bio international) dissolved in phosphate buffer (150 mM K2HPO4—KH2PO4, pH 7.0, 0.008% Triton X-100, 0.8 M KF) was added to each well and left stand at 30° C. for an hour. After then, fluorescence intensity was measured (excitation wavelength: 320 nm, measuring wavelength: 620 nm and 665 nm) using Wallac 1420 multilabel counter (Perkin Elmer life sciences). Enzymatic activity was determined from counting ratio of each wavelength (10,000×Count 665/Count 620) and 50% inhibitory concentration against the enzymatic activity was calculated.

[3] = test system: Neuroblastoma SH-SY5Y cells (SH/APPwt) with human wild-type β-APP excessively expressed; assay: Measurement of β-amyloid (Aβ) production inhibitory effect in cell; format: cell-based; conditions: 24 hours, Aβ 1-40 in culture supernatant by HTRF, read-out: IC50 (amount needed to inhibit Aβ production by 50%)
Method: Neuroblastoma SH-SY5Y cells (SH/APPwt) with human wild-type β-APP excessively expressed therein were prepared at 8×10^5 cells/mL, and 150 μl portions thereof were inoculated into respective wells of a 96-well culture plate (Falcon). The cells were cultured for 2 hours at 37° C. in a 5% gaseous carbon dioxide incubator. Then, a solution which had been preliminarily prepared by adding and suspending the test compound (DMSO (dimethyl sulfoxide) solution) so as to be 2 μl/50 μl medium was added to the cell sap. Namely, the final DMSO concentration was 1%, and the amount of the cell culture was 200 μl. After the incubation was performed for 24 hours from the addition of the test compound, 100 μl of the culture supernatant was collected from each fraction. The amount of the Aβ in each fraction was measured.
The Aβ amount was measured as follows. 10 μl of a homogeneous time resolved fluorescence (HTRF) measurement reagent (Amyloid-β 1-40 peptide; IBA Molecular Holding, S.A.) and 10 μl of the culture supernatant were put into a 384-well half area microplate (black microplate, Costar) and mixed with each other, and then left standing overnight at 4° C. while the light was shielded. Then, the fluorescence intensity (excitation wavelength: 337 nm, measurement wavelength: 620 nm and 665 nm) was measured with a Wallac 1420 multilabel counter (Perkin Elmer life sciences). […]

CYP1A2 = biological target: T3, CYP1A2 (Homo sapiens, UniProt P05177); assay: CYP inhibition test (7-ethoxyresorufin O-deethylation); format: in vitro ADME; conditions: pooled human hepatic microsome, 0.5 μmol/L ethoxyresorufin
T3 construct: enzyme, pooled human hepatic microsome 0.2 mg protein/mL; from tissue; host or cells: pooled human hepatic microsomes
T3 sequence (P05177 1-516): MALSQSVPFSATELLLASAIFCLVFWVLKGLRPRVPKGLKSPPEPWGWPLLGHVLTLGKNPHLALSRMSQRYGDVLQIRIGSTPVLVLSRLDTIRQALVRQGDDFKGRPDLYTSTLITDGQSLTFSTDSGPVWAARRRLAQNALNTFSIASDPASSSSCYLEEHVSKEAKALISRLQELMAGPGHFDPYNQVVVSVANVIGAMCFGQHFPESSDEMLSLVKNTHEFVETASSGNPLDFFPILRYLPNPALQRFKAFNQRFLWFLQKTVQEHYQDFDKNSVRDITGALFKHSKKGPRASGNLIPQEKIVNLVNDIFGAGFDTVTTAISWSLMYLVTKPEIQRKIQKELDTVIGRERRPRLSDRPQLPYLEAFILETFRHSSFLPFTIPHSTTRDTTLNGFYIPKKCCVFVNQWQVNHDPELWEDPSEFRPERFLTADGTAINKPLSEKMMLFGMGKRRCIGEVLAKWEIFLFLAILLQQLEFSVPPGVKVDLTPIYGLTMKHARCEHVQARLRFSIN
Method: (§1) Using commercially available pooled human hepatic microsome, and employing, as markers, 7-ethoxyresorufin O-deethylation (CYP1A2), tolbutamide methyl-hydroxylation (CYP2C9), mephenyloin 4′-hydroxylation (CYP2C19), dextromethorphan O-demethylation (CYP2D6), and terfenedine hydroxylation (CYP3A4) as typical substrate metabolism reactions of human main five CYP enzyme forms (CYP1A2, 2C9, 2C19, 2D6, 3A4), an inhibitory degree of each metabolite production amount by a test compound was assessed. […]
(§2) Each five kinds of substrates, human hepatic microsome, or a test drug in 50 mM Hepes buffer as a reaction solution was added to a 96-well plate at the composition as described above, NADPH, as a cofactor was added to initiate metabolism reactions as markers and, after the incubation at 37° C. for 15 minutes, a methanol/acetonitrile=1/1 (v/v) solution was added to stop the reaction. After the centrifugation at 3000 rpm for 15 minutes, resorufin (CYP1A2 metabolite) in the supernatant was quantified by a fluorescent multilabel counter and tributamide hydroxide (CYP2CP metabolite), mephenyloin 4′ hydroxide (CYP2C19 metabolite), […], and terfenadine alcohol (CYP3A4 metabolite) were quantified by LC/MS/MS. […]

CYP2C9 = biological target: T4, CYP2C9 (Homo sapiens, UniProt P11712); assay: CYP inhibition test (tolbutamide methyl-hydroxylation); format: in vitro ADME; conditions: pooled human hepatic microsome
T4 construct: enzyme, pooled human hepatic microsome 0.2 mg protein/mL; from tissue; host or cells: pooled human hepatic microsomes
Method: as §1, §2

CYP2C19 = biological target: T5, CYP2C19 (Homo sapiens, UniProt P33261); assay: CYP inhibition test (mephenyloin 4′-hydroxylation); format: in vitro ADME; conditions: pooled human hepatic microsome, 50 μmol/L S-mephenitoin
T5 construct: enzyme, pooled human hepatic microsome 0.2 mg protein/mL; from tissue; host or cells: pooled human hepatic microsomes
Method: as §1, §2

CYP2D6 = biological target: T6, CYP2D6 (Homo sapiens, UniProt P10635); assay: CYP inhibition test (dextromethorphan O-demethylation); format: in vitro ADME; conditions: pooled human hepatic microsome, 5 μmol/L dextromethorphan
T6 construct: enzyme, pooled human hepatic microsome 0.2 mg protein/mL; from tissue; host or cells: pooled human hepatic microsomes
Method: as §1, §2

CYP3A4 [4] = biological target: T1, CYP3A4; assay: CYP inhibition test (terfenedine hydroxylation); format: in vitro ADME; design: enzyme, pooled human hepatic microsome 0.2 mg protein/mL; from tissue; host or cells: pooled human hepatic microsomes; conditions: pooled human hepatic microsome, 1 μmol/L terfenedine
Method: as §1, §2

T1 sequence (P08684 whole entry): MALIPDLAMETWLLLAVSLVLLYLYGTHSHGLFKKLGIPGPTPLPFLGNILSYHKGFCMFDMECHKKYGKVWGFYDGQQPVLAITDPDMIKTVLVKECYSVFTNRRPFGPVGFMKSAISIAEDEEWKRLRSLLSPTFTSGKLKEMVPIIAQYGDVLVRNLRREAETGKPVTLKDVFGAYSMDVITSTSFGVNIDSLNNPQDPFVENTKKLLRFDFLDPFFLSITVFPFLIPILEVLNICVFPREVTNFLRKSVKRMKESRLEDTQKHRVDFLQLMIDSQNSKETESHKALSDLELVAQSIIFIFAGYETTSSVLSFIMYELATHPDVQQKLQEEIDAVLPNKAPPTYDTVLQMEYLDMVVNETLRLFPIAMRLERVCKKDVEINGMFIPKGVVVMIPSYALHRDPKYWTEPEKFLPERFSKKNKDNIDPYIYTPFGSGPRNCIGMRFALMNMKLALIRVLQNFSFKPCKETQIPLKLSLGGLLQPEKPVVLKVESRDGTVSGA
T4 sequence (P11712 whole entry): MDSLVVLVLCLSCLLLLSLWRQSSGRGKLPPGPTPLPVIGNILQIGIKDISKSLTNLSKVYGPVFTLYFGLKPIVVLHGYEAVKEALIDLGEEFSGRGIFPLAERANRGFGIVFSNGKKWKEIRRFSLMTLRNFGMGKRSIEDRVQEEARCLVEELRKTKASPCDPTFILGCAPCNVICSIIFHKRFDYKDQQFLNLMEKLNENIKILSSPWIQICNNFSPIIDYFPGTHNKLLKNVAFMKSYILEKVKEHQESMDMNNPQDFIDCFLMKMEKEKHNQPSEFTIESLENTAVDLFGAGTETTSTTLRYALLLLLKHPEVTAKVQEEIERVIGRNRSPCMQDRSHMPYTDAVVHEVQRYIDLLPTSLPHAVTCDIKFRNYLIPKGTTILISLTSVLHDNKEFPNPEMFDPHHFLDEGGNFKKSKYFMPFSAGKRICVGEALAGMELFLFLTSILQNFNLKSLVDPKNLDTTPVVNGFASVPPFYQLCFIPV
T6 sequence (P10635 whole entry): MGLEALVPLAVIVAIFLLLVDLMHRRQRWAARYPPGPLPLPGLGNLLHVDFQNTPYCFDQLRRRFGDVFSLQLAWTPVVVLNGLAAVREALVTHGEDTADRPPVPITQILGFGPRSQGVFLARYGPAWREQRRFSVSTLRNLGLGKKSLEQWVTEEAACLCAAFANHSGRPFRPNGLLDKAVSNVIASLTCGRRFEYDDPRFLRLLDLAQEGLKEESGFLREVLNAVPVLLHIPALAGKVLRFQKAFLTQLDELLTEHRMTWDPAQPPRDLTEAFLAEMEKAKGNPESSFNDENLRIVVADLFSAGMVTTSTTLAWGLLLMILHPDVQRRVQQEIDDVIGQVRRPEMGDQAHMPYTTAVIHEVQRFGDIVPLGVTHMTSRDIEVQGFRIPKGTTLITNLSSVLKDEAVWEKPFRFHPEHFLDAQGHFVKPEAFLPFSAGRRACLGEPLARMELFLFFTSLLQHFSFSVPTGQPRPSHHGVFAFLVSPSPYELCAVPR
T5 sequence (P33261 whole entry): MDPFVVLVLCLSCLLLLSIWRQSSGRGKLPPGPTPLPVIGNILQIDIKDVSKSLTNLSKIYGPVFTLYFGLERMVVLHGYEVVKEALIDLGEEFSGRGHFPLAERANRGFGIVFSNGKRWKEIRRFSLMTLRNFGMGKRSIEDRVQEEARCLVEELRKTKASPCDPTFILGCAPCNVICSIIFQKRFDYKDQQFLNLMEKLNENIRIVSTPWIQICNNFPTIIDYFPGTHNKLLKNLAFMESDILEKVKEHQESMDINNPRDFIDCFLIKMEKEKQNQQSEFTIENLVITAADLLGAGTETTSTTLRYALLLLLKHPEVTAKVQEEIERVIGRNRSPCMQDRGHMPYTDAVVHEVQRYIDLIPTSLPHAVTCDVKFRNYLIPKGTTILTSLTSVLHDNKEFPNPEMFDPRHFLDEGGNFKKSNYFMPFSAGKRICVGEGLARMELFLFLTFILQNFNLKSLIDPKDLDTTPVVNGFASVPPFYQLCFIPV
T2 sequence (P56817 46-501): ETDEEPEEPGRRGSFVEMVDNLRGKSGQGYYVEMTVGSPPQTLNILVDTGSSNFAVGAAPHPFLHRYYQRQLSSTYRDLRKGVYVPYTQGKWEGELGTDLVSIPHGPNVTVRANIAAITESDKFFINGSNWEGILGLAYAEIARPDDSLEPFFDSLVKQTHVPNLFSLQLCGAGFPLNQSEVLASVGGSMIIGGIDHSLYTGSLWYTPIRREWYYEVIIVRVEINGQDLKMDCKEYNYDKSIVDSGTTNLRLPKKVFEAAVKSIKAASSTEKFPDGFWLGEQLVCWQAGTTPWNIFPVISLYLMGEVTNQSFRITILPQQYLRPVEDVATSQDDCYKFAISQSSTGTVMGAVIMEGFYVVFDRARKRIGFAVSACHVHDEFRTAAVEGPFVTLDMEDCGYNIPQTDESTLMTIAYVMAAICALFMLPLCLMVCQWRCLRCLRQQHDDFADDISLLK

**Q.** For `COc1cnc(C(=O)Nc2ccc(F)c([C@]3(C)C=C(C(C)(C)O)SC(N)=N3)c2)cn1` [Compound I-19], which “remaining amount of the test compound after the reaction” value [1] is on record?
**A.** Its value is 96.4%.

**Q.** For `C[C@@]1(c2cc(NC(=O)c3ccc(C#N)cn3)ccc2F)C=C(c2ccccn2)SC(N)=N1` [Compound I-20], which “CYP3A4 MBI: difference between IC50 values (pre-reaction time 0 or 30 minutes)” value (CYP3A4 [2]) is on record?
**A.** Its value is “(−) (when the difference is 3 μM or less, this was defined as (−))”.

**Q.** For `C[C@@]1(c2cc(NC(=O)c3ccc(C#N)cn3)ccc2F)C=C(CO)SC(N)=N1` [Compound I-6], which solubility at 4 h (Solubility test) is on record?
**A.** Its solubility at 4 h is over 40 µM.

**Q.** With `CCC1=C[C@@](C)(c2cc(NC(=O)c3ccc(C#N)cn3)ccc2F)N=C(N)S1` [Compound I-8] as the compound, how does the pIC50 (Recombinant human BACE1) read?
**A.** The pIC50 was 7.92.

**Q.** What about the pIC50 [3] of the same compound?
**A.** The pIC50 was 8.70.

**Q.** With `COCCNC(=O)C1=C[C@@](C)(c2cc(NC(=O)c3ccc(C#N)cn3)ccc2F)N=C(N)S1` [Compound I-2] as the compound, how does the pIC50 (CYP1A2) read?
**A.** Its pIC50 is under 4.68.

**Q.** What about the pIC50 (CYP2C9) of the same compound?
**A.** Its pIC50 is under 4.68.

**Q.** And the pIC50 (CYP2C19)?
**A.** The pIC50 was under 4.68.

**Q.** And the pIC50 (CYP2D6)?
**A.** Its pIC50 is under 4.68.

**Q.** What about the pIC50 (CYP3A4 [4]) of the same compound?
**A.** Its pIC50 is under 4.68.
